One data set concerns the target T1, recombinant human HDAC1 (Homo sapiens, UniProt Q13547).
T1 construct: purchased BPS Biosciences (San Diego, CA, USA)
Briefly: HDAC1 in vitro fluorescence-based inhibition assay (ZMAL substrate). The conditions noted are these: for IC50: recombinant human HDAC1, ZMAL 10.5 µM, 90 min 37 °C, read-out: IC50 (µM) ± SE HDAC1. Format: biochemical. An excerpt: (§1) In order to investigate a potential subtype selectivity among different HDAC classes, we first tested them against the recombinant histone deacetylases HDAC1 (class I) and HDAC6 (class llb). […] To further address this issue, we also tested the respective compounds against the class l histone deacetylase HDAC8 (also see Table 1).
(§2) Recombinant human HDAC1 and 6 were purchased from BPS Biosciences (San Diego, CA, USA), and recombinant human HDAC8 was produced as described before. Inhibition tests of human HDAC1 and 6 were conducted using carboxybenzyl acetyllysine aminomethylcoumarin (ZMAL) as a substrate. […] For testing of HDAC8, the commercial Fluor de Lys drug discovery kit (BML-KI178) (Enzo Life Sciences, Lausen, Switzerland) was used according to the manufacturer’s instruction. Briefly, the test compound, Fluor de Lys-HDAC8 substrate (50 μM), and enzyme were incubated for 90 min at 37 °C with subsequent addition of 50 μL of Developer II (BML-KI176) (Enzo Life Sciences, Lausen, Switzerland) and further incubation for 45 min at 30 °C. In both assays, trichostatin A (2 μM) was used to stop the reaction. Fluorescence in both cases was measured in a plate reader (BMG Polarstar, BMG Labtech, Ortenberg, Germany) with excitation at λ = 390 nm and emission at λ = 460 nm.

In the next data set the target is T2, recombinant human HDAC6 (Homo sapiens, UniProt Q9UBN7).
T2 construct: purchased BPS Biosciences (San Diego, CA, USA)
T2 sequence (Q9UBN7 1-1215): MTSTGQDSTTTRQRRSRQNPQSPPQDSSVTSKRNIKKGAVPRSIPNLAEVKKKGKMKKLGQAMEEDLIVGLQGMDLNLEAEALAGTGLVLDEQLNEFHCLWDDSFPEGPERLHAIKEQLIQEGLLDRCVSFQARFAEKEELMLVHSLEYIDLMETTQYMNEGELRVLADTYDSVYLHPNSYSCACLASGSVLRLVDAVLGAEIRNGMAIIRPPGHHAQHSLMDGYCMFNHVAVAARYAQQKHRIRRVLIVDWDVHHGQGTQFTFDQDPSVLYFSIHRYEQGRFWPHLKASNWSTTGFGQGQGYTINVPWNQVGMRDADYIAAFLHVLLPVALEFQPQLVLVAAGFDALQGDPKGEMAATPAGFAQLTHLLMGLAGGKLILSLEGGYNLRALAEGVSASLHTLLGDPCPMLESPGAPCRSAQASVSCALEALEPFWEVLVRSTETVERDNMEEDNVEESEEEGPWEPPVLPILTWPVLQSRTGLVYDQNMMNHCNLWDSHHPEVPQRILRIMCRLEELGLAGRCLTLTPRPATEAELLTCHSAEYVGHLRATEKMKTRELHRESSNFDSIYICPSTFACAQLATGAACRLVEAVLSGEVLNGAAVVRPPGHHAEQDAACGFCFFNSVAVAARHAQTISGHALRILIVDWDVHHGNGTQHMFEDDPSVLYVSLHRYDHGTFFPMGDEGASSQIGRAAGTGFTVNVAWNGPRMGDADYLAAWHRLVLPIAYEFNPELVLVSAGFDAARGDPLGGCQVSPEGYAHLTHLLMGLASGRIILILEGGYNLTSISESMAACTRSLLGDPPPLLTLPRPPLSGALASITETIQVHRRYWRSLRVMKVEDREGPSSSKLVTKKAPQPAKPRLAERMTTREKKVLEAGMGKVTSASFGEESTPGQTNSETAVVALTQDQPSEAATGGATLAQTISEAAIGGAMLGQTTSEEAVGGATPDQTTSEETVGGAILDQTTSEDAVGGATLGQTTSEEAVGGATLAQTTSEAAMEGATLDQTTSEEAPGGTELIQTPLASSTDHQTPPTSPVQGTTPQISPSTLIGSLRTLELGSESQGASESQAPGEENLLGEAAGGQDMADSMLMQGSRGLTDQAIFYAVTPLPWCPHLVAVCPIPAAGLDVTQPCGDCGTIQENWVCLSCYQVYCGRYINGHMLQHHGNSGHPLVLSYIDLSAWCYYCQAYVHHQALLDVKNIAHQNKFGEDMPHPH
Briefly: HDAC6 in vitro fluorescence-based inhibition assay (ZMAL substrate). The following applies: recombinant human HDAC6, ZMAL 10.5 µM, 90 min 37 °C; read-out: IC50 (µM) ± SE HDAC6. Format: biochemical.
Source text: as §1, §2

The subject of data set [1] is acetylation of histone H3 and tubulin in HL60 cells. Briefly: Western blot of acetylation levels of histone H3 and tubulin in HL60 cells. The following applies: 4 h. It counts as cell-based, human. The protocol: An inhibition of deacetylation in this experiment is expected to lead to hyperacetylation of the respective proteins. Besides histone H3, acetylated tubulin was chosen as a target protein. As tubulin is only accepted as a target by HDAC 6 [21], this allows us to explore subtype selectivity in a cellular setting (see Figure 4).
HL60 cells were treated with the inhibitors in the given concentrations. Cells treated with dimethyl sulfoxide as a vehicle were used as controls. After an incubation time of 4 h, cells were transferred into 50-mL Falcon tubes and centrifuged (300× g, 5 min). The supernatant was removed, and the cells were washed with PBS, before they were transferred to 1.7-mL reaction tubes. The cells were lysated with Bio-Rad loading buffer, and the cell suspension was heated to 95 °C for 5 min. The proteins then were separated using a 15% SDS-polyacrylamide gel electrophoresis and transferred to a polyvinylidene fluoride (PVDF) membrane (Roti-PVDF, Carl Roth, Karlsruhe, Germany). Acetylation levels were detected using an anti-acetyl histone H3 antibody (Millipore, Billerica, MA, USA) and an anti-acetyl-α-tubulin antibody (Sigma Aldrich, St. Louis, MO, USA). An antibody directed against GAPDH (Sigma Aldrich) was used as a loading control.

Another data set has as its system HL60 cells. Briefly: Cell proliferation assay (CellTiter 96 AQueous) in HL60 cells. The conditions noted are these: Homo sapiens, HL-60, 72 h, read-out: GI50 (µM) ± SE HL60.
Data set [2] can be described thus: Stability analysis under in vitro assay conditions, HPLC quantification of released hydroxamic acid. It counts as physicochemical. The conditions noted are these: in vitro assay conditions without substrate, HDAC1 present, compound 2.4 mM, 90 min 37 °C. The protocol:
In order to address the question if the newly-synthesized carbamates are hydrolyzed during the assay procedure or if they really serve as HDAC inhibitors themselves, stability stress tests were performed. For this purpose, the compounds were subjected to the standard in vitro assay conditions, but without adding a substrate as, no enzyme conversion should be observed in these experiments. After 90 min of incubation at 37 °C, the release of SAHA of the different samples was detected and quantified via HPLC. This led to the finding that a release of SAHA could be detected for all samples (see Table 1). […] This means that the question if the carbamate scaffold represents a new warhead for HDAC inhibition or if the degradation to SAHA is solely responsible for the observed inhibitory effects cannot be resolved completely.
To test the stability of Compound 9 under assay conditions, we also performed stability analysis with HPLC quantification. This experiment led to the finding that 8.7% of the carbamate 9 is degraded under release of bufexamac during incubation time. This fraction of released bufexamac may contribute to in vitro and cellular HDAC inhibition, but the observed selectivity profile of the carbamate in the in vitro assays clearly implies an intrinsic HDAC activity of carbamates.
For stability tests, the carbamates were subjected to the described in vitro assay conditions (see above) without adding the substrate ZMAL and without the second incubation step with trypsin. Compounds were applied in a final concentration of 2.4 mM, and recombinant HDAC1 was used as the enzyme. After 90 min of incubation at 37 °C, the release of SAHA was detected via HPLC on an Agilent 1200 series device. The employed analytical column was a Kinetex 5u XB-C18, 100 Å, 250 × 4.6 mm (Phenomenex, Torrance, CA, USA) with the ReproSil 100 C18 5-µm precolumn (Jasco, Oklahoma City, OK, USA). The following conditions were applied: Eluent A: H2O containing 0.05% TFA, Eluent B: acetonitrile containing 0.05% TFA, linear gradient conditions (0–4 min, A = 90%, B = 10%; 4–29 min, linear increase to 100% of B; 29–31 min, B = 100%; 31.5–40 min, A = 10%, B = 90%); injection volume: 30 µL, flow rate: 1 mL/min; detection wavelength: λ = 254 nm. For evaluation, the ChemStation software from Agilent was used. To quantify the released amount of SAHA and bufexamac, calibration curves were plotted by incubating DMSO stocks of these compounds under in vitro assay conditions with final compound concentrations ranging from 1 µM–200 µM. HPLC analysis with the conditions described above led to the following equations: y = 13.935x − 27.918 for SAHA and y = 0.6099x + 1.1301 for bufexamac.

Data set [3] deals with HDAC activity in HL60 cells. Briefly: Cellular HDAC inhibition assay (MAL substrate) in HL60 cells. The following applies: Homo sapiens, HL-60, read-out: IC50 (µM) ± SE cellular HDAC inhibition HL60.
Description: Therefore, we decided to adapt this assay for a cellular setting allowing us to verify the previous results by assessing HDAC inhibition in the human leukemia cell lines HL60 and U937 (see the right side of Table 2).
After 2 h of incubation, 50 µL substrate solution were added, containing tert-butyloxycarbonyl acetyl lysine aminomethylcoumarin (MAL) as a substrate (300 µM final assay concentration) and IGEPAL CA-630 (final concentration 0.05%). After 2 more hours of incubation at 37 °C and 5% CO2, 50 µL stop solution consisting of 0.5 µL TSA (100 µM) and 5 µL trypsin solution (10 mg/mL) in 44.5 µL cell buffer were added. This mixture was incubated for a further 20 min at 37 °C. Fluorescence was measured in a plate reader (BMG Polarstar) with excitation at λ = 390 nm and emission at λ = 460 nm.
A further data set concerns U937 cells. Briefly: Cell proliferation assay (CellTiter 96 AQueous) in U937 cells. The conditions noted are these: Homo sapiens, U-937, 72 h, read-out: GI50 (µM) ± SE U937.

Where “and” joins values, the source holds several entries; their conditions need not be identical. Identical values can stand only once. Counter-ions that a name gives are not always drawn.

T1 sequence (Q13547 whole entry): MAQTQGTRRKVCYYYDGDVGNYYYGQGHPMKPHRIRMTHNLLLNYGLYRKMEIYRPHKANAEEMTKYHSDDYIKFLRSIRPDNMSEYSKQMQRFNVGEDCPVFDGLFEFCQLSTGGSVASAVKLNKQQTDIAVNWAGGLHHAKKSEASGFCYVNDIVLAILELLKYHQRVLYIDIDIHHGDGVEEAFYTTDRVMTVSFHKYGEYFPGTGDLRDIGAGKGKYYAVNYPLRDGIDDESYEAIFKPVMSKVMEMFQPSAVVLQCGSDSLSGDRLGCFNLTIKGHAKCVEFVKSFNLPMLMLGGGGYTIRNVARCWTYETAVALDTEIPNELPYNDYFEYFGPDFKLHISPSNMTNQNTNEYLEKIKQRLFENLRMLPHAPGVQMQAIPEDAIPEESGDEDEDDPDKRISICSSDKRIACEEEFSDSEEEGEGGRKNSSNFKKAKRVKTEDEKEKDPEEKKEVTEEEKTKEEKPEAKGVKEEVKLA
Description for U937 cells: To further investigate the inhibition properties of the carbamates, we tested their antiproliferative activity on human promyelocytic leukemia cells (HL60) and on human histiocytic lymphoma cells (U937).
HL60 or U937 cells were seeded in 96-well tissue culture plates at a density of 5 × 10^4 cells per well. Cells were immediately incubated with inhibitors. As these cells already differentiate with 1% DMSO content, inhibitors were prepared as 200× stock solutions in DMSO. In all cases, inhibitors were compared to DMSO vehicle only, and three replicates per concentration were used. Growth inhibition was determined using the CellTiter 96® AQueous Non-Radioactive Cell Proliferation Assay according to the manufacturer’s instructions. Briefly, 5 × 10^4 of HL60 or U937 cells per well were treated with DMSO stocks of the respective inhibitors or with DMSO in 100 µL cell culture medium and incubated for 72 h at 37 °C and 5% CO2 in transparent 96-well microtiter plates (PAA). Subsequently, 20 µL of the detection reagent (containing a tetrazolium salt) was added to each well and incubated for 4 more hours under the same conditions. After this time, absorption was measured at a wavelength of 490 nm (BMG Polarstar, BMG Labtech, Ortenberg, Germany).

As a reminder, the IC50 is the concentration at which inhibition is half-maximal. For orientation: GI50 means the concentration at which growth is held to half of that of the control. Turning to `CCCCOc1ccc(CC(=O)NO)cc1` [Bufexamac (8), bufexamac, reference compound], the half-inhibitory concentration (IC50) at recombinant human HDAC1 amounted to 31.7 ± 4.75 µM. Further, on recombinant human HDAC6, the half-maximal inhibitory concentration (IC50) was determined as 2.24 ± 0.05 µM. In data set [1], the “acetylation levels of H3” value is on record as “not affected” and the tubulin acetylation entry is on record as “hyperacetylation of tubulin”. In the data set with HL60 cells, the GI50 was 31.8 ± 0.57 µM.
Turning to `O=C(CCCCCCC(=O)Nc1ccccc1)NOC(=O)N1CCNCC1` [Compound 7, [(8-Anilino-8-oxo-octanoyl)amino]piperazin-4-ium-1-carboxylate trifluoroacetate], the IC50 at recombinant human HDAC1 was 5.1 µM and 5.09 µM; on recombinant human HDAC6 it was 3.7 µM and 3.71 µM; in data set [3], 22.4 ± 0.28 µM. Further, the “Release of SAHA (%)” value in data set [2] is 3.7%. For the same compound, the “effect on H3 and tubulin acetylation levels” value in data set [1] was “least effective substance”. Also, the GI50 with HL60 cells stood at 25.9 ± 1.96 µM.
As to `CCCCOc1ccc(CC(=O)NOC(=O)NC(C)C)cc1` [Compound 9], the inhibition at 300 µM on recombinant human HDAC1 (at 300 µM, read-out: Inhibition (%) @ Concentration (µM) HDAC1) was found to be 49%. Further, the IC50 on recombinant human HDAC6 was determined as 13.7 ± 0.16 µM. In data set [1], the “acetylation levels of H3” value is on record as “not affected” and the tubulin acetylation result is listed as “hyperacetylation of tubulin”. For the same compound, the GI50 in the data set on HL60 cells was 33.99 ± 0.06 µM.
With `O=C(CCCCCCC(=O)Nc1ccccc1)NO` [SAHA (1), N-hydroxy-N′-phenyloctanediamide, reference compound], the figures for the GI50 in the data set on HL60 cells and in the data set on U937 cells were 0.54 ± 0.03 µM and 0.43 ± 0.09 µM, respectively.

The values are drawn from PMC6017415, “Carbamates as Potential Prodrugs and a New Warhead for HDAC Inhibition” (Molecules : A Journal of Synthetic Chemistry and Natural …, 2018).
